Laboratory results published in patent US20250011878A1, “METHOD TO DETECT RNA BIOMARKERS” (ITALFARMACO SPA, priority 2021, published 2025).

Test system: tumor microenvironment of CT26-bearing animals
Assay: Ex-vivo RNAseq gene expression in tumor microenvironment of CT26-bearing mice, responders vs non responders
Parameters: species or system BALB/c mice
Conditions: RNAseq total counts
Protocol: Adult BALB/c mice were injected s.c. with 1×10^6 CT26 tumor cells (diluted to 100 μl with phosphate buffered saline) and treated with anti-PD1 or ITF3756 when the tumor volume reached 75-100 mm^3, to explore the modulation of genes in the tumor microenvironment by RNAseq. Since ITF3756 acts on the PD-1/PD-L1 axis, this approach allows the identification of genes specific and common to both treatments. The overall schedule is described in Table 9.
RNA was extracted from flash frozen tumors using the Qiagen extraction kit and stored at −80° C. A paired-end sequencing was chosen, in which short reads are obtained from ends of DNA fragments for ultra-high-throughput sequencing. Prior to further analysis, a quality check was performed on the sequencing data. All samples contain sequences 75 nucleotides long (75 nt×2).
The RNA-Seq analysis pipeline involved several steps: • 1. Quality Control of the reads, • 2. Removal of low quality reads • 3. Reads spliced Alignment • 4. Transcriptome expression quantification analysis
The sample was mapped on reference Mus musculus genome (mm10) using the bioinformatics tool STAR (version 2.4.0d), with the standard parameters for paired reads. The reference track was the assembly mm10 obtained from Refseq. […] Average mapping ratio was above 93% and Ribosomal content was below 1% for all samples.
The quantification of transcripts expressed for each sequenced sample was performed using Cufflinks. The units of measurement used in Cufflinks is FPKM (Fragments Per Kilobase of transcript per Million mapped reads) and it is meant to be a measure of relative abundance of a transcript/gene in a RNA pool. It is not intended to be used directly for Differential Expression but it is meant to be human readable, and takes into account main technical confounding factors such as millions of reads and gene length.
Responders and non-responders were selected based on tumor volume at day 20. […]
Statistical significance was determined by unpaired t-test using GraphPad software (version 9), p-values […] were considered significant.

O=C(NO)c1ccc(Cn2nnnc2-c2cccs2)cc1 [ITF3756, N-hydroxy-4-((5-(thiophen-2-yl)-1 H-tetrazol-1-yl)methyl)benzamide]
IRF6 expression in the tumor microenvironment, responders compared to non responders (p<0.1): striking expression upregulation | CD40 expression in the tumor microenvironment, responders compared to non-responder mice (unpaired t-test): statistically significant upregulation | MMP9 expression in the tumor microenvironment, responders compared to non responders (unpaired t-test): statistically significant reduction
